For this assay, the target named is T1, Caspase-1 (Homo sapiens, UniProt P29466).
T1 sequence (P29466 whole entry): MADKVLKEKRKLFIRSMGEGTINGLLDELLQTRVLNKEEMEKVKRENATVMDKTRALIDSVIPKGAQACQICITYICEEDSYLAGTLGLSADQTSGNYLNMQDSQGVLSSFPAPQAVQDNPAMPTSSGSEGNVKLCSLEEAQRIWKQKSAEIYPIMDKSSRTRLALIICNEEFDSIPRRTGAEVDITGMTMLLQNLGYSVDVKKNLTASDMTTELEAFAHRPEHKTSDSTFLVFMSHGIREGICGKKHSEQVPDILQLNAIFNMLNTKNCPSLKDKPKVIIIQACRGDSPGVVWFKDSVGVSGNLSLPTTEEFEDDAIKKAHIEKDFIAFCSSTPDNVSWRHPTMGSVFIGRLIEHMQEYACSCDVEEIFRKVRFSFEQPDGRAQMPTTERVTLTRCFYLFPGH
Kind of assay: The compound was tested for its inhibitory activity against IL-1 beta converting enzyme.

For `CC(C)[C@H](NC(=O)CCCCc1ccccc1)C(=O)N[C@@H](C)C(=O)NC(CC(=O)O)C(=O)C(F)(F)CCCc1ccccc1` (some centres not stated), affinity was put at a Ki of 42 µM.

In turn, `CC(C)[C@H](NC(=O)CCc1ccccc1)C(=O)N[C@@H](C)C(=O)NC(CC(=O)O)C(=O)C(F)(F)CCCc1ccccc1` (some centres not stated) had a Ki of 6 µM.

As a reminder, the Ki is the equilibrium dissociation constant of an inhibitor or competing ligand from its target. A high value points to lower affinity.

For the origin of these results see ChEMBL document CHEMBL1127161, “Synthesis of a peptidyl 2,2-difluoro-4-phenylbutyl ketone and its evaluation as an inhibitor of interleukin-1 converting enzyme” (Bioorg Med Chem Lett, 1993).
